Laboratory results published in article PMC7306766 (Proceedings of the National Academy of Sciences of the …, 2020).

Biological target: T1, mouse HCN2 (Mus musculus, UniProt O88703)
T1 sequence (O88703 1-863): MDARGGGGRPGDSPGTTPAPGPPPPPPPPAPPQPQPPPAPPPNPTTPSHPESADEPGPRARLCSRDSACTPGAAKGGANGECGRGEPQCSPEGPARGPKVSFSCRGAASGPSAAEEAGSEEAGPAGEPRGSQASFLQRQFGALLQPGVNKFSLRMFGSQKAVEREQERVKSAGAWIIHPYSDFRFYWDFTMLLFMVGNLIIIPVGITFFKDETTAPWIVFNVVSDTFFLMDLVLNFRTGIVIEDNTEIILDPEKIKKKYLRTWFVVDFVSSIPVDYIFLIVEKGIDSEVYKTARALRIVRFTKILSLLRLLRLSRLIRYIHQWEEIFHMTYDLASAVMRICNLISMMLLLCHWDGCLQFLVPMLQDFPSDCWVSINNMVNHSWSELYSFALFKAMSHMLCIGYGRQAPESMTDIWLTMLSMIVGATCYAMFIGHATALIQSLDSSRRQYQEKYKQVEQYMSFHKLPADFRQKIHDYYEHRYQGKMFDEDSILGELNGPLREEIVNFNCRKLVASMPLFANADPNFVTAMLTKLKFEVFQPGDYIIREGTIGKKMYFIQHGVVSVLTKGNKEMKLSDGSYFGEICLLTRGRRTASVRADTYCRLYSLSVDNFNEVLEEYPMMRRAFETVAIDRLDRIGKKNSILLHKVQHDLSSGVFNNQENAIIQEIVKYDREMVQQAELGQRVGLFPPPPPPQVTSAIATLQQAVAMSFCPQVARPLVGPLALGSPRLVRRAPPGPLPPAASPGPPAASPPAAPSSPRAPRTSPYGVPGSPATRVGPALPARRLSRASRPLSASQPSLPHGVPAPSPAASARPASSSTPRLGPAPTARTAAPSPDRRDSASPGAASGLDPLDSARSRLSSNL
Assay: patch clamp, excised inside-out patches from HEK cells
Assay type: biochemical
Details: open-channel pore blocker

CCN(c1ccccc1)c1cc(NC)[n+](C)c(C)n1 [ZD7288]
% inhibition at 200 μM: mean relative inhibition of zebrafish HCNL1 and mouse HCN2 in response to ZD7288
